Source: ChEMBL document CHEMBL6071157, “Improved N-phenylpyrrolamide inhibitors of DNA gyrase as antibacterial agents for high-priority bacterial strains” (Eur J Med Chem, 2024)
In brackets after ≈: the same amount, converted by molar mass. Activity calls are given as the source filed them. The calls are words filed in the database; no cut-off is given here.

What was measured:
[1] = biological target: T1, DNA topoisomerase 2-alpha (Homo sapiens, UniProt P11388); assay: Inhibition of human DNA topoisomerase 2-alpha using linear pBR322 as substrate assessed as conversion of NADH to NAD+ by measuring residual activity at 100 uM preincubated for 10 to 15 mins in presence of pyruvate kinase/lactate dehydrogenase mix followed by ATP addition and measured after 30 mins by ATPase assay relative to control; conditions: time 40-55 min
[2] = test system: Enterobacter cloacae; assay: Antibacterial activity against Enterobacter cloacae subsp. cloacae ATCC 13047 assessed as inhibition of bacterial growth by broth microdilution method; type: functional
[3] = test system: Escherichia coli; assay: Inhibition of Escherichia coli DNA topoisomerase-IV assessed as residual activity at 1 uM by relaxation plate assay relative to control
[4] = test system: Pseudomonas aeruginosa; assay: Antibacterial activity against Pseudomonas aeruginosa ATCC 27853 assessed as inhibition of bacterial growth by broth microdilution metho; type: functional
[5] = Metabolic stability in human liver microsomes assessed as intrinsic clearance at 1 uM preincubated for 10 mins followed by NADPH addition and measured after 5 to 60 mins by LC-MS/MS analysis; type: ADME, Microsome; conditions: time 15-70 min, read-out: CLH
[6] = test system: Enterococcus faecium; assay: Antibacterial activity against vancomycin-resistant Enterococcus faecium ATCC 700221 assessed as inhibition of bacterial growth by broth microdilution method; type: functional
[7] = test system: Staphylococcus aureus; assay: Antibacterial against methicillin resistant Staphylococcus aureus ATCC 43300 assessed as inhibition of bacterial growth by broth microdilution method; type: functional; conditions: time 24 hrs
[8] = biological target: DNA gyrase (Escherichia coli, UniProt P0AES4+P0AES6); assay: Inhibition of Escherichia coli DNA gyrase by supercoiling plate assay; type: protein-complex assay
[9] = test system: Enterococcus faecalis; assay: Antibacterial activity against Enterococcus faecalis ATCC 29212 assessed as inhibition of bacterial growth by broth microdilution method; type: functional
[10] = Metabolic stability in mouse liver microsomes assessed as intrinsic clearance at 1 uM preincubated for 10 mins followed by NADPH addition and measured after 5 to 60 mins by LC-MS/MS analysis; type: ADME, Microsome; conditions: time 15-70 min, read-out: CLH
[11] = test system: MCF7; assay: Cytotoxicity against human MCF7 cells assessed as cell viability at 50 uM incubated for 72 hrs by CellTiter 96 aqueous one solution reagent based MTS assay relative to control; type: functional; conditions: read-out: Activity
[12] = test system: Klebsiella pneumoniae; assay: Antibacterial activity against Klebsiella pneumoniae ATCC 10031 assessed as inhibition of bacterial growth by broth microdilution method; type: functional
[13] = Metabolic stability in mouse liver microsomes assessed as half life at 1 uM preincubated for 10 mins followed by NADPH addition and measured after 5 to 60 mins by LC-MS/MS analysis; type: ADME, Microsome; conditions: time 15-70 min
[14] = test system: Acinetobacter baumannii; assay: Antibacterial activity against Acinetobacter baumannii ATCC 17978 assessed as inhibition of bacterial growth by broth microdilution method; type: functional
[15] = test system: Staphylococcus aureus; assay: Antibacterial against vancomycin-intermediate Staphylococcus aureus ATCC 700699 assessed as inhibition of bacterial growth by broth dilution method; type: functional
[16] = test system: Staphylococcus aureus; assay: Antibacterial activity against Staphylococcus aureus ATCC 29213 assessed as inhibition of bacterial growth by broth microdilution method; type: functional
[17] = test system: Escherichia coli; assay: Antibacterial activity against Escherichia coli ATCC 25922 assessed as inhibition of bacterial growth by broth microdilution method; type: functional
[18] = Metabolic stability in human liver microsomes assessed as half life at 1 uM preincubated for 10 mins followed by NADPH addition and measured after 5 to 60 mins by LC-MS/MS analysis; type: ADME, Microsome; conditions: time 15-70 min
[19] = test system: Staphylococcus aureus; assay: Bactericidal activity against methicillin resistant Staphylococcus aureus ATCC 43300 at 8 times of MIC measured a 6 to 24 hrs by time-kill kinetic assay; type: functional, organism-based; conditions: time 6-24 hrs
[20] = test system: Staphylococcus aureus; assay: Antibacterial activity against methicillin resistant Staphylococcus aureus ATCC 43300 assessed as post antibiotic effect at 8 times of MIC incubated for 1 hrs and measured after 8 hrs; type: functional; conditions: time 9 hrs
[21] = test system: Staphylococcus aureus; assay: Drug resistance, ratio of MIC for methicillin-resistant Staphylococcus aureus ATCC 43300 measured after 10 passages to MIC for methicillin-resistant Staphylococcus aureus during first exposure; type: functional
[22] = test system: Staphylococcus aureus; assay: Drug resistance, ratio of MIC for methicillin-resistant Staphylococcus aureus ATCC 43300 measured after 8 passages to MIC for methicillin-resistant Staphylococcus aureus during first exposure; type: functional
[23] = biological target: T1, DNA topoisomerase 2-alpha; assay: Inhibition of human DNA topoisomerase 2-alpha using linear pBR322 as substrate assessed as conversion of NADH to NAD+ by measuring residual activity at 40 uM preincubated for 10 to 15 mins in presence of pyruvate kinase/lactate dehydrogenase mix followed by ATP addition and measured after 30 mins by ATPase assay relative to control; conditions: time 40-55 min
[24] = biological target: DNA gyrase (Escherichia coli) (UniProt P0AES6+P0AES4); assay: Inhibition of Escherichia coli DNA gyrase assessed as residual activity at 1 uM by supercoiling plate assay relative to control; type: protein-complex assay
[25] = biological target: T1, DNA topoisomerase 2-alpha; assay: Inhibition of human DNA topoisomerase 2-alpha using linear pBR322 as substrate assessed as conversion of NADH to NAD+ preincubated for 10 to 15 mins in presence of pyruvate kinase/lactate dehydrogenase mix followed by ATP addition and measured after 30 mins by ATPase assay
[26] = test system: Escherichia coli; assay: Inhibition of Escherichia coli DNA topoisomerase-IV assessed as residual activity at 10 uM by relaxation plate assay relative to control
[27] = biological target: DNA gyrase (Staphylococcus aureus) (UniProt P0A0K8+P20831); assay: Inhibition of Staphylococcus aureus DNA gyrase assessed as residual activity at 0.1 uM by supercoiling plate assay relative to control; type: protein-complex assay
[28] = Inhibition of Escherichia coli DNA topoisomerase-IV relaxation plate assay
[29] = test system: Staphylococcus aureus; assay: Antibacterial activity against methicillin resistant Staphylococcus aureus ATCC 43300 assessed as assessed as bacterial killing incubated for 24 hrs by time-kill kinetics assay; type: functional, organism-based
[30] = test system: Staphylococcus aureus; assay: Bactericidal activity against Staphylococcus aureus ATCC 43300 at 8 times MIC measured after 8 hrs by time kill assay; type: functional, organism-based
[31] = biological target: T1, DNA topoisomerase 2-alpha; assay: Inhibition of human DNA topoisomerase 2-alpha using linear pBR322 as substrate assessed as conversion of NADH to NAD+ by measuring residual activity at 10 uM preincubated for 10 to 15 mins in presence of pyruvate kinase/lactate dehydrogenase mix followed by ATP addition and measured after 30 mins by ATPase assay relative to control; conditions: time 40-55 min

T1 sequence (P11388 whole entry): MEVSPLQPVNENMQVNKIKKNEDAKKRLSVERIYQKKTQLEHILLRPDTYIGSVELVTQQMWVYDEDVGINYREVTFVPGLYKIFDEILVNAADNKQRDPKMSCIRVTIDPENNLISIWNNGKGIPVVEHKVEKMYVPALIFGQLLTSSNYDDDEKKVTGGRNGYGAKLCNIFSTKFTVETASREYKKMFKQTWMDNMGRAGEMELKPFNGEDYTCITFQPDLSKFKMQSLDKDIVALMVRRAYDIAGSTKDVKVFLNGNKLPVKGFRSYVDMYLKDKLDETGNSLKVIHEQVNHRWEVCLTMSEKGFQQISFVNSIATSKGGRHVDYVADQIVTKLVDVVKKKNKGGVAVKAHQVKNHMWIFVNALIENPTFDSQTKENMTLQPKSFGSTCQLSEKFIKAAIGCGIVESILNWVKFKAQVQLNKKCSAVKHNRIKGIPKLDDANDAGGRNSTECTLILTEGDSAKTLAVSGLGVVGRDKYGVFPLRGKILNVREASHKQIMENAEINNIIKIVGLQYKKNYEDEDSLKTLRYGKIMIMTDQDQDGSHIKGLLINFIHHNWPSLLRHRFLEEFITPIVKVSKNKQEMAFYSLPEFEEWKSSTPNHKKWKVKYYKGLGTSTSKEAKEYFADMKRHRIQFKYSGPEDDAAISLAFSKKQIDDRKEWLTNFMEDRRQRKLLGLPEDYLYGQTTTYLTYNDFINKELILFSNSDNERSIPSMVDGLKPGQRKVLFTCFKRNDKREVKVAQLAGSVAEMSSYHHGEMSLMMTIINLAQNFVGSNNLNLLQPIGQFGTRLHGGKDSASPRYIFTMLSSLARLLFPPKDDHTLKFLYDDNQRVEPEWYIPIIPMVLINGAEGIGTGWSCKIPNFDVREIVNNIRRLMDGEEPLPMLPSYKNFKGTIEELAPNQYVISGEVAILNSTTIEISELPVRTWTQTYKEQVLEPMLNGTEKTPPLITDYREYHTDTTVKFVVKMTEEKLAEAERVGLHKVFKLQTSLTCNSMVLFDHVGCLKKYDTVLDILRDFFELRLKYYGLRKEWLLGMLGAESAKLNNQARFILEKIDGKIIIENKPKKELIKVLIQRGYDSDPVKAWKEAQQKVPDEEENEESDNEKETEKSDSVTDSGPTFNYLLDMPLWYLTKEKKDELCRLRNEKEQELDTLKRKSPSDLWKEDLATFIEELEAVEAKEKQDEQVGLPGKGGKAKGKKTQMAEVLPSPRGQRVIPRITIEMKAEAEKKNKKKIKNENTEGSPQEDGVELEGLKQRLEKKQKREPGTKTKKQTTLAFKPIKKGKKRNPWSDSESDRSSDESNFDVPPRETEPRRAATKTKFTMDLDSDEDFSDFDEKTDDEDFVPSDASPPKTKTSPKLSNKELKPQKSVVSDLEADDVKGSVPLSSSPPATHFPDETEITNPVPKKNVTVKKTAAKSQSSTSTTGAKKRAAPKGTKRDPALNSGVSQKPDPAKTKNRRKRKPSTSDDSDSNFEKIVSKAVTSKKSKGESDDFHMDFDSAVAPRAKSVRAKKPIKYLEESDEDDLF
Sequence of DNA gyrase (Staphylococcus aureus) (P0A0K8 2-644 limits assumed): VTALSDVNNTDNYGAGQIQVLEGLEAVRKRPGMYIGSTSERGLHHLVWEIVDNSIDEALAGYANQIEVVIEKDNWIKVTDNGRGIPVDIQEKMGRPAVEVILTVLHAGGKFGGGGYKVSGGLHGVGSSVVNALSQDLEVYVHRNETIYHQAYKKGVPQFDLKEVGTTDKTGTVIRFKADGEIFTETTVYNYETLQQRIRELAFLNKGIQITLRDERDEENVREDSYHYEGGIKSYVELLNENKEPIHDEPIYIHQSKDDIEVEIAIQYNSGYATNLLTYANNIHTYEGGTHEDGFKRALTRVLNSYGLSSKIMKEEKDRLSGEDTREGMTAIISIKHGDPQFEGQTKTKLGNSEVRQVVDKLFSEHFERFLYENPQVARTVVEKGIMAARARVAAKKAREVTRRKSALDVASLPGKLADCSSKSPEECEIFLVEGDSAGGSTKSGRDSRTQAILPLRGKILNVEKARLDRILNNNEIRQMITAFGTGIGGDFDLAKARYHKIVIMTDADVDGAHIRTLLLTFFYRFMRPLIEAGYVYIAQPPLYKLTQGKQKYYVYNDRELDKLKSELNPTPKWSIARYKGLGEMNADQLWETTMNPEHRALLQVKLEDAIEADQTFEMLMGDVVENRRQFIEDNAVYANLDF
Sequence of DNA gyrase (Staphylococcus aureus) (P20831 whole entry partner): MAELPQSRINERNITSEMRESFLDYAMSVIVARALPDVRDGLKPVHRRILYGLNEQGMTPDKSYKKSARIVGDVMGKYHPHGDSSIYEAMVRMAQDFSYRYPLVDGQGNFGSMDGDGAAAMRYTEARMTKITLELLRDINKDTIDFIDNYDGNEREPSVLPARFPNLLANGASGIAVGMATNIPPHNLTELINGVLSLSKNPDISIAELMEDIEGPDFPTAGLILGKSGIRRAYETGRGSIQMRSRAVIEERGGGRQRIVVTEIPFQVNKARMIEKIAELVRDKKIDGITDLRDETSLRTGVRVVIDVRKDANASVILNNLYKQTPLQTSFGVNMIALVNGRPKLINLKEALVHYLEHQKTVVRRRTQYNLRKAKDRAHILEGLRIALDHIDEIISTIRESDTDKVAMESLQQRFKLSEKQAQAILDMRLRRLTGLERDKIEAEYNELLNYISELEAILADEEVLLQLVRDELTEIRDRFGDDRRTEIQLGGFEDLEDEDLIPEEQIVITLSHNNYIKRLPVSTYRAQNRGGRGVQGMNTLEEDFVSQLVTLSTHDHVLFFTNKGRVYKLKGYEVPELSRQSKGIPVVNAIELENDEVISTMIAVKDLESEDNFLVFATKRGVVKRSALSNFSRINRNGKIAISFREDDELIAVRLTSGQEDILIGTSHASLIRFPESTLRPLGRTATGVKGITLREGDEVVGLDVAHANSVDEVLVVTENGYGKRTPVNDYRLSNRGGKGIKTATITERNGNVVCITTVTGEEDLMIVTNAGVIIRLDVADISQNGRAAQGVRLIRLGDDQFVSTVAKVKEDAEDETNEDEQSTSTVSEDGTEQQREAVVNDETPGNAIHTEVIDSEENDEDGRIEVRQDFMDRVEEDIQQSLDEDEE

| SMILES | Activity [1] [%] | MIC [2] [µg/mL] | MIC [4] [µg/mL] | MIC [6] [µg/mL] | MIC [7] [µg/mL] | IC50 [8] [nM] | MIC [9] [µg/mL] | viability at 50 µM [11] [%] | MIC [12] [µg/mL] | MIC [14] [µg/mL] | MIC [15] [µg/mL] | MIC [16] [µg/mL] | MIC [17] [µg/mL] | further results |
| --- | --- | --- | --- | --- | --- | --- | --- | --- | --- | --- | --- | --- | --- | --- |
| Cc1[nH]c(C(=O)Nc2ccc(-c3noc(=O)[nH]3)cc2N2CCN(C(=O)OC(C)(C)C)CC2)c(Cl)c1Cl | 95 | > 64 | > 64 | 0.25 (≈ 0.465 µM) | > 64 | 13.7 | < 0.031 | 78 | > 64 | > 64 | < 0.031 | > 64 | > 64 | Activity [3]: 71%; microsomal CLint at 1 µM [5]: 18.2 µL/min/mg; microsomal CLint at 1 µM [10]: < 9.6 µL/min/mg; half-life at 1 µM [13]: > 2.42 h |
| Cc1[nH]c(C(=O)Nc2ccc(-c3noc(=O)[nH]3)cc2N2CCC(NC(=O)OC(C)(C)C)CC2)c(Cl)c1Cl | 30 | > 64 | > 64 | 0.5 (≈ 0.907 µM) | 0.5 (≈ 0.907 µM) | 6.7 | < 0.031 | 44 | > 64 | > 64 | 0.063 (≈ 0.114 µM) | > 64 | > 64 | Activity [3]: 62%; half-life at 1 µM [18]: 1.27 h |
| O=C(O)c1cn(C2CC2)c2cc(N3CCNCC3)c(F)cc2c1=O [CIPROFLOXACIN] |  |  |  |  |  |  |  |  |  |  |  |  |  | Activity [19]: Active; PAE [20]: 2 h; Ratio [21]: 16; Ratio [22]: 8 |
| Cc1nnc(-c2ccc(NC(=O)c3[nH]c(C)c(Cl)c3Cl)c(OC(C)C)c2)o1 |  |  | > 64 |  |  |  |  |  |  |  |  | > 64 | > 64 | Activity [23]: 115%; Activity [24]: 95% |
| Cc1[nH]c(C(=O)Nc2ccc(-c3nnn[nH]3)cc2N2CCOCC2)c(Cl)c1Cl |  | > 64 | > 64 | > 64 | > 64 | 44.5 |  |  | > 64 | > 64 |  | > 64 | > 64 | IC50 [25]: 39200 nM; Activity [3]: 77% |
| Cc1[nH]c(C(=O)Nc2ccc(-n3nn[nH]c3=O)cc2N2CCC(NC(=O)OC(C)(C)C)CC2)c(Cl)c1Cl | 34 |  |  |  |  | 33 |  |  |  |  |  |  |  | Activity [26]: 63%; Activity [27]: 65% |
| Cc1[nH]c(C(=O)Nc2ccc(-c3noc(=O)[nH]3)cc2N2CCC(N)CC2)c(Cl)c1Cl.Cl |  | > 64 | > 64 | 32 | 32 | 0.253 | 32 |  | 64 | > 64 | 16 | 64 | > 64 | IC50 [25]: 26200 nM; IC50 [28]: 187 nM |
| Cc1[nH]c(C(=O)Nc2ccc(-c3noc(=O)[nH]3)cc2NC2CCN(C(=O)OC(C)(C)C)CC2)c(Cl)c1Cl | 98 | > 64 | > 64 | 0.063 (≈ 0.114 µM) | 0.5 (≈ 0.907 µM) | 6.92 | < 0.031 | 64 | > 64 | > 64 | < 0.031 | 2 (≈ 3.63 µM) | > 64 | Activity [29]: Dose-Dependent Effect; PAE [20]: 2 h; IC50 [28]: 1680 nM; Ratio [21]: 128; Activity [30]: Active; Ratio [22]: 4 |
| Cc1[nH]c(C(=O)Nc2ccc(-c3nnn[nH]3)cc2N2CCCC(CNC(=O)OC(C)(C)C)C2)c(Cl)c1Cl (stereo not drawn) |  |  |  |  |  | 280 |  |  |  |  |  |  |  | Activity [31]: 95% |
| Cc1[nH]c(C(=O)Nc2ccc(-n3nn[nH]c3=O)cc2N2CCN(c3ccccc3)CC2)c(Cl)c1Cl |  | > 32 | > 32 | 0.5 (≈ 0.974 µM) | > 32 | 7.8 | 0.5 (≈ 0.974 µM) | 58 | > 32 | > 32 | 0.5 (≈ 0.974 µM) | > 32 | > 32 | IC50 [25]: 33600 nM; Activity [26]: 104% |
| Cc1[nH]c(C(=O)Nc2ccc(-c3noc(=O)[nH]3)cc2N2CCOCC2)c(Cl)c1Cl |  |  | > 32 | 0.5 (≈ 1.14 µM) | 2 (≈ 4.56 µM) | 13 |  | 101 |  |  |  | 4 (≈ 9.13 µM) | > 32 | Activity [26]: 76%; Activity [23]: 119% |
